From patent publication US20180099967A1, “FUSED TRICYCLIC HETEROCYCLIC COMPOUNDS AS HIV INTEGRASE INHIBITORS” (MERCK SHARP & DOHME CORP., priority 2015, published 2018)
Read-outs that look alike come from different tables or passages of the source.

Test system: HIV-1
Assay: microbe, parasite or virus in culture
Type: cell-based, HIV-1 (H9IIIB or NL4-3 virus)
Method: HIV-1 replication was monitored using MT4-gag-GFP clone D3 (hereafter designate MT4-GFP), which are MT-4 cells modified to harbor a GFP reporter gene, the expression of which is dependent on the HIV-1 expressed proteins tat and rev. Productive infection of an MT4-GFP cell with HIV-1 results in GFP expression approximately 24 h post-infection.
MT4-GFP cells were maintained at 37° C./5% CO2/90% relative humidity in RPMI 1640 supplemented with 10% fetal bovine serum, 100 U/ml penicillin/streptomycin, and 400 μg/ml G418 to maintain the reporter gene. For infections, MT4-GFP cells were placed in the same medium lacking G418 and infected overnight with H9IIIB or NL4-3 virus at an approximate multiplicity of infection of 0.01 in the same incubation conditions. Cells were then washed and resuspended in either RPMI 1640 containing no serum at 1.6×10^5 cells/mL (serum free conditions), 10% normal human serum at 1.6×10^5 cells/mL (10% NHS conditions) or in 100% normal human serum at 2×10^5 cells/mL (100% NHS conditions). Compound plates were prepared by dispensing compounds taken up in DMSO into wells of 384 well poly D lysine-coated plates (0.2 μl/well) using an ECHO acoustic dispenser. Each compound was tested in a 10 point serial 3-fold dilution (typical final concentrations: 4.2 μM-0.21 nM). Controls included no inhibitor (DMSO only) and a combination of three antiviral agents (efavirenz, indinavir, and the integrase strand transfer inhibitor L-002254051 at final concentrations of 4 μM each). Cells were added (50 μL/well) to compound plates and the infected cells were maintained at 37° C./5% CO2/90% relative humidity.
Infected cells were quantified at two time points, ˜48 h and ˜72 h post-infection, by counting the number of green cells in each well using an Acumen eX3 scanner. […] Inhibition of R0 is calculated for each well, and IC50 value was determined using non-linear 4-parameter curve fitting.

[1] = Human immunodeficiency virus 1, read-out: WILD TYPE CELL ASSAY Viking IP (0% NHS) (nM)
[2] = Human immunodeficiency virus 1, read-out: WILD TYPE CELL ASSAY Viking IP (100% NHS) (nM)
[3] = read-out: WILD TYPE CELL ASSAY Viking IP (0% NHS)
[4] = read-out: WILD TYPE CELL ASSAY Viking IP (100% NHS)

CCN1C[C@H]2C[C@@H](N)c3c(C(=O)NCc4ccc(F)cc4F)c(=O)c(O)c(n32)C1=O [Compound 4]
IC50 [1]: 2 nM | IC50 [2]: 158 nM

CCN1C[C@@H]2C[C@@H](N)c3c(C(=O)NCc4ccc(F)cc4F)c(=O)c(O)c(n32)C1=O [Compound 1]
IC50 [3]: 2 nM | IC50 [4]: 19 nM

CCN1C[C@H]2C[C@@H](NS(C)(=O)=O)c3c(C(=O)NCc4ccc(F)c(Cl)c4F)c(=O)c(O)c(n32)C1=O [Compound 50]
IC50 [1]: 2 nM | IC50 [2]: 24 nM

CCN[C@H]1C[C@@H]2CN(CC)C(=O)c3c(O)c(=O)c(C(=O)NCc4cccc(Cl)c4F)c1n32 [Compound 19]
IC50 [1]: 10 nM | IC50 [2]: 10900 nM

CCN1C[C@H]2C[C@H](NS(C)(=O)=O)c3c(C(=O)NCc4ccc(F)cc4F)c(=O)c(O)c(n32)C1=O [Compound 45]
IC50 [3]: 7 nM | IC50 [4]: 1200 nM

CCN1C[C@@H]2C[C@H](NC(C)=O)c3c(C(=O)NCc4ccc(F)cc4F)c(=O)c(O)c(n32)C1=O [Compound 57]
IC50 [1]: 24 nM | IC50 [2]: 135 nM

CCN1C[C@H]2C[C@H](NS(C)(=O)=O)c3c(C(=O)NCc4ccc(F)c(F)c4F)c(=O)c(O)c(n32)C1=O [Compound 49]
IC50 [1]: 11 nM | IC50 [2]: 12500 nM

CCN1C[C@@H]2CC(N3CCCC3)c3c(C(=O)NCc4ccc(F)cc4F)c(=O)c(O)c(n32)C1=O (single isomer, unassigned) [Compound 34]
IC50 [3]: 55 nM | IC50 [4]: 487 nM

CCN1C[C@@H]2C[C@@H](N3CCCC3)c3c(C(=O)NCc4cccc(Cl)c4F)c(=O)c(O)c(n32)C1=O [Compound 42]
IC50 [1]: 5 nM | IC50 [2]: 16 nM

CCN[C@@H]1C[C@@H]2CN(CC)C(=O)c3c(O)c(=O)c(C(=O)NCc4cccc(F)c4F)c1n32 [Compound 18]
IC50 [1]: 10 nM | IC50 [2]: 25 nM

CCNC1CC2CN(CCOC)C(=O)c3c(O)c(=O)c(C(=O)NCc4ccc(F)cc4F)c1n32 (single isomer, unassigned) [Compound 66]
IC50 [3]: 12 nM | IC50 [4]: 180 nM

CCN[C@H]1C[C@@H]2CN(CC)C(=O)c3c(O)c(=O)c(C(=O)NCc4cccc(F)c4F)c1n32 [Compound 17]
IC50 [1]: 14 nM | IC50 [2]: 1980 nM

CCCN1CC2CC(NS(C)(=O)=O)c3c(C(=O)NCc4ccc(F)cc4F)c(=O)c(O)c(n32)C1=O (single isomer, unassigned) [Compound 69]
IC50 [3]: 7 nM | IC50 [4]: 4560 nM

CCN1C[C@@H]2C[C@@H](N3CCC3)c3c(C(=O)NCc4cccc(Cl)c4F)c(=O)c(O)c(n32)C1=O [Compound 40]
IC50 [1]: 5 nM | IC50 [2]: 20 nM

CCN1C[C@H]2C[C@@H](NCCOC)c3c(C(=O)NCc4ccc(F)cc4F)c(=O)c(O)c(n32)C1=O [Compound 28]
IC50 [1]: 6 nM | IC50 [2]: 21 nM

CCN1C[C@@H]2C[C@@H](N(C)C)c3c(C(=O)NCc4cccc(Cl)c4F)c(=O)c(O)c(n32)C1=O [Compound 38]
IC50 [1]: 1 nM | IC50 [2]: 12 nM

CCCN1CC2CC(NS(C)(=O)=O)c3c(C(=O)NCc4ccc(F)cc4F)c(=O)c(O)c(n32)C1=O (single isomer, unassigned) [Compound 71]
IC50 [3]: 3 nM | IC50 [4]: 17 nM
